Source: EP4711369A1, “1H-[1,2,3]TRIAZOLO[4,5-H]QUINAZOLINE COMPOUNDS AS PROTEIN KINASE INHIBITORS” (Chengdu Cynogen Bio-Pharmaceutical Technology Co., Ltd., priority 2023, dated 2024)

Legend:
CDK6/cyclin D3 = CDK6/cyclin D3 (Homo sapiens, UniProt Q00534); test: Assay of kinase activity (ADP-Glo); type: biochemical; details: kinase inhibitory activity
Method in brief: (§1)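 Human CDK6/cyclin D3 and CDK9/cyclin T1 preincubated 10 min at 25 °C with compound in 50 mM Hepes, 10 mM MgCl2, 0.01% Brij35, 2 mM DTT, then reacted 60 min at 25 °C with substrate and ATP. ADP formed measured by ADP-Glo luminescence; IC50 from nonlinear concentration-response fitting.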

CDK9/cyclin T1 = CDK9/cyclin T1 (Homo sapiens, UniProt P50750); test: Assay of kinase activity (ADP-Glo); type: biochemical; details: kinase inhibitory activity
Sequence of CDK9/cyclin T1 (P50750 whole entry, species assumed): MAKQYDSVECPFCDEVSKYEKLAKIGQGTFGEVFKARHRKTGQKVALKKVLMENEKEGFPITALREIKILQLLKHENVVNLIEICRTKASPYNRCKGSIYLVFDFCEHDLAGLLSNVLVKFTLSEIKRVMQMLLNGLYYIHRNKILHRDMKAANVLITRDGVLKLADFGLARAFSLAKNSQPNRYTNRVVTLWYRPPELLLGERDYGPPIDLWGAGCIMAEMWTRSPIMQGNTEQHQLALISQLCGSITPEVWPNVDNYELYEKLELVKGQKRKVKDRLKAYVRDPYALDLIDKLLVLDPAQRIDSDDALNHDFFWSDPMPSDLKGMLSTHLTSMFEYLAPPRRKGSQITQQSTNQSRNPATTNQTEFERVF
Sequence of CDK9/cyclin T1 (O60563 whole entry partner, species assumed): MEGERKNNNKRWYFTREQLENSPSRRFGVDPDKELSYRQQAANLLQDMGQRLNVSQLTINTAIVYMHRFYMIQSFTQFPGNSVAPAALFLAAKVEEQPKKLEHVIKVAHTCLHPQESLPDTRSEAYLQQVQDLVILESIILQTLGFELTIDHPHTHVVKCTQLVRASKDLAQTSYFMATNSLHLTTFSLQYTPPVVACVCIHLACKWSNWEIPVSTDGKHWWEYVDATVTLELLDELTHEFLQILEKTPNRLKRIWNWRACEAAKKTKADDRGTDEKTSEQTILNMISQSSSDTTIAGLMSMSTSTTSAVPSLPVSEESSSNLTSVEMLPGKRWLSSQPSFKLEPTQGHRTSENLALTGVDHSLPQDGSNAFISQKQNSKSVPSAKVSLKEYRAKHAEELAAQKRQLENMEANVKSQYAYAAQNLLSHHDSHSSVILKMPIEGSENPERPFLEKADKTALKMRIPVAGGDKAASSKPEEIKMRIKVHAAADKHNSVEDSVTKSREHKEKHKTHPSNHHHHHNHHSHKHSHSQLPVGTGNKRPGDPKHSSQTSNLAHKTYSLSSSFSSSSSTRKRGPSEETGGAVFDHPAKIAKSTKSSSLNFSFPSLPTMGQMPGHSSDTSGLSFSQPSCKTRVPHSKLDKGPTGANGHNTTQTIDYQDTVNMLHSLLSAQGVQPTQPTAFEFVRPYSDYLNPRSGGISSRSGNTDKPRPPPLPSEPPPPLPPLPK
Method in brief: as §1

[1] = test system: human acute myeloid leukemia MV-4-11 cells; test: Assay of cell proliferation (CellTiter-Glo); type: cell-based; details: MV4-11, 144 h, 6 days, read-out: MV-4-11 IC50 of cell proliferation inhibitory activity
Method in brief: (§2)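 Cells seeded per line at growth-adapted densities, treated 6 days at 37 °C/5% CO2 with nine 3-fold dilutions (10 µM to 0.1 nM final, 0.5% DMSO). Viability by CellTiter-Glo luminescence; IC50 from four-parameter fit.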

[2] = test system: human breast cancer HCC1806 cells; test: Assay of cell proliferation (CellTiter-Glo); type: cell-based; details: Homo sapiens, 144 h, 6 days, read-out: HCC1806 IC50 of cell proliferation inhibitory activity
Method in brief: as §2

[3] = test system: human breast cancer MCF-7 cells; test: Assay of cell proliferation (CellTiter-Glo); type: cell-based; details: 144 h, MCF7 cells, 6 days, read-out: MCF7 IC50 of cell proliferation inhibitory activity
Method in brief: as §2

[4] = test system: human colon cancer HCT-116 cells; test: Assay of cell proliferation (CellTiter-Glo); type: cell-based; details: 144 h, 6 days, read-out: HCT-116 IC50 of cell proliferation inhibitory activity
Method in brief: as §2

[5] = test system: human gastric cancer MKN1 cells; test: Assay of cell proliferation (CellTiter-Glo); type: cell-based; details: Homo sapiens, MKN-1, 144 h; MNK1, 6 days; read-out: MKN1 IC50 of cell proliferation inhibitory activity
Method in brief: as §2

[6] = test system: Human ovarian cancer OVCAR3 cells; test: Assay of cell proliferation (CellTiter-Glo); type: cell-based; details: Homo sapiens, OVCAR-3, 144 h, 6 days, read-out: OVCAR3 IC50 of cell proliferation inhibitory activity
Method in brief: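 OVCAR3 cells, 2000/well in RPMI 1640 with 20% FBS, treated with nine 3-fold dilutions from 10 µM to 0.1 nM (0.5% DMSO) for 6 days at 37 °C. Viability by CellTiter-Glo luminescence; IC50 by four-parameter fit.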

[7] = test system: Human gastric cancer MKN1 cells; test: MKN1 tumor model; type: in vivo; details: female BALB/c nude mice, p.o. 10, 20 and 30 mg/kg once daily, 22 days, Fig. 4
Experimental: Human gastric cancer MKN1 cells were cultured in RPMI 1640 medium containing 10% FBS at 37 °C and 5% CO2 in an incubator. Matrigel was mixed with serum-free RPMI 1640 medium at a ratio of 1:1, and then the mixture was used to resuspend the MKN1 cancer cells at 1 × 10^7 / 0.1 ml. Then, the cells were inoculated subcutaneously into the right rib area of female BALB/c nude mice. When the volume of tumors reached approximately 100-150 mm^3, the mice were randomly divided into groups for treatment, with six animals per group. The compound was prepared in a 20% aqueous solution of hydroxypropyl-gamma-cyclodextrin containing an equivalent amount of hydrochloric acid, and administered by oral gavage (p.o.) at dosages of 10, 20, and 30 (mg/kg) once daily, for a total of 22 days. The untreated group was given solvent by oral gavage. The tumor volume was measured twice a week using a vernier caliper by measuring the long and short diameters of a tumor. The formula for calculating a tumor volume was: volume (mm^3) = (long diameter (mm) × short diameter (mm) × short diameter (mm)/2. The mice were weighed daily.
The therapeutic effect of a drug was evaluated using the tumor growth inhibition (TGI%).

Sequence of CDK6/cyclin D3 (Q00534 whole entry, species assumed): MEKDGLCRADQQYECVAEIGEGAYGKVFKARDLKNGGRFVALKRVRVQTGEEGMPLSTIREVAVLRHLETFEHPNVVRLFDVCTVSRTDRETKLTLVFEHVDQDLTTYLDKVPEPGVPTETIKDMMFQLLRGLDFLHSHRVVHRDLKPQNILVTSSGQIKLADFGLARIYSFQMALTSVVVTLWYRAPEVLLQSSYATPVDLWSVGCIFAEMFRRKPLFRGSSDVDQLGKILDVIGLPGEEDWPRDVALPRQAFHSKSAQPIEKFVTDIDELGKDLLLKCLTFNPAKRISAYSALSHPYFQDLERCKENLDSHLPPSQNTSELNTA
Sequence of CDK6/cyclin D3 (P30281 whole entry partner, species assumed): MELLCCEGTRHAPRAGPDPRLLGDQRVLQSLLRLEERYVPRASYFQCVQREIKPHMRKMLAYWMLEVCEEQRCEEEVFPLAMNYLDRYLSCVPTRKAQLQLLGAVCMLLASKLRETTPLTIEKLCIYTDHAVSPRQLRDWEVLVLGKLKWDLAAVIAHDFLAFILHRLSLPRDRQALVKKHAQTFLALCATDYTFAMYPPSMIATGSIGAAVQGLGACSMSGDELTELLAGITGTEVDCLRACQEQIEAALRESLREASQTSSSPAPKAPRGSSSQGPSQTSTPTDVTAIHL

`CC(C)n1nnc2ccc3cnc(Nc4ccc(C(=O)N5CC[C@H](N(C)C)C5)cc4)nc3c21` [Example I-10, (S)-(3-(Dimethylamino)pyrrolidin-1-yl)(4-((1-isopropyl-1H-[1,2,3]triazolo[4,5-H]quinazolin-8-yl)amino)phenyl)metha none] showed an IC50 (CDK6/cyclin D3) of 4 nM, an IC50 (CDK9/cyclin T1) of 2 nM and an IC50 [1] of 4 nM. The IC50 [2] was 22 nM, the IC50 [3] was 11 nM and the IC50 [4] was 11 nM. For the same compound, the IC50 [5] was 15 nM, the IC50 [6] was 16 nM and the “growth inhibitory effect on the MKN1 tumor model (TGI%)” value [7] was “dose-dependent relationship”.
